Data from ChEMBL document CHEMBL5550211 (J Med Chem, 2024).
≈ marks a conversion by molar mass, not a printed value. Calls of active or inactive are those of the source. No cut-off for these calls is given here.

Assays:
[1] = Unbound drug concentration in mouse brain at 5 mg/kg, po after 2 hrs; type: ADME, organism-based; settings: in vivo
[2] = Unbound drug concentration in mouse brain at 30 mg/kg, po after 2 hrs; type: ADME, organism-based; settings: in vivo
A-375 [3] = experiment: Antitumor activity against human A-375 cells harboring BRAF V600E mutant xenografted in Nu/nu NCR mouse assessed as IC90 coverage at 5 mg/kg, po BID for 60 days; type: functional, organism-based; settings: time 60.0 day
A-375 [4] = experiment: Antitumor activity against human A-375 cells harboring BRAF V600E mutant xenografted in Nu/nu NCR mouse assessed as IC90 coverage time at 10 mg/kg, po BID for 60 days; type: functional; settings: time 60 day
A-375 [5] = experiment: Antitumor activity against human A-375 cells harboring BRAF V600E mutant xenografted in Nu/nu NCR mouse assessed as IC90 coverage time at 10 mg/kg, po BID for 21 days; type: functional; settings: time 21 day
[6] = Oral bioavailability in mouse at 5 mg/kg; type: ADME, organism-based; settings: in vivo
[7] = AUCinfinity in mouse at 10 mg/kg, po; type: ADME, organism-based; settings: in vivo
[8] = Chemical stability in MeOH/NaHCO3/glutathione assessed as drug metabolism assessed as SN2 substitution after 50 degreeC overnight incubation; type: physicochemical; settings: read-out: Drug metabolism
[9] = Drug concentration in mouse plasma at 30 mg/kg, po after 4 hrs; type: ADME, organism-based
[10] = Unbound drug concentration in mouse brain at 30 mg/kg, po after 4 hrs; type: ADME, organism-based; settings: in vivo
[11] = Drug concentration in mouse brain at 30 mg/kg, po after 2 hrs; type: ADME, organism-based; settings: read-out: Ct
[12] = Unbound drug concentration in mouse plasma at 30 mg/kg, po after 2 hrs; type: ADME, organism-based; settings: in vivo
A-375 [13] = experiment: Antitumor activity against human A-375 cells harboring BRAF V600E mutant xenografted in Nu/nu NCR mouse assessed as IC90 coverage time at 5 mg/kg, po BID for 21 days; type: functional; settings: time 21 day
[14] = Drug concentration in mouse brain at 10 mg/kg, po after 4 hrs; type: ADME, organism-based; settings: read-out: Ct
[15] = Protein binding in mouse brain assessed as unbound fraction; type: ADME, tissue-based
[16] = Drug concentration in mouse brain at 5 mg/kg, po after 2 hrs; type: ADME, organism-based; settings: read-out: Ct
[17] = Plasma protein binding in dog assessed as unbound fraction; type: ADME, cell-free, Canis lupus familiaris
[18] = Volume of distribution at steady state in mouse at 3 mg/kg, iv; type: ADME, organism-based; settings: in vivo, read-out: Vdss
[19] = Unbound drug concentration in mouse plasma at 10 mg/kg, po after 4 hrs; type: ADME, organism-based; settings: in vivo
A-375 [20] = experiment: Antitumor activity against human A-375 cells harboring BRAF V600E mutant xenografted in Nu/nu NCR mouse assessed as tumor flux inhibition at 10 to 30 mg/kg, po BID for 60 days; type: functional; design: scale not given: the % may be the effect or the level left; settings: dose 10-30 mg/kg, time 60 day
[21] = Unbound drug concentration in mouse plasma at 10 mg/kg, po after 2 hrs; type: ADME, organism-based; settings: in vivo
[22] = Unbound drug concentration in mouse plasma at 5 mg/kg, po after 4 hrs; type: ADME, organism-based; settings: in vivo
[23] = Unbound drug concentration in mouse brain at 5 mg/kg, po after 4 hrs; type: ADME, organism-based; settings: in vivo
[24] = Protein binding in cynomolgus monkey brain assessed as unbound fraction; type: ADME, tissue-based, Macaca fascicularis
[25] = Tmax in mouse at 30 mg/kg, po; type: ADME, organism-based; settings: in vivo
[26] = AUCinfinity in mouse at 30 mg/kg, po; type: ADME, organism-based; settings: in vivo
[27] = Half-life in mouse at 3 mg/kg, iv; type: ADME, organism-based; settings: in vivo
[28] = Drug concentration in mouse plasma at 10 mg/kg, po after 2 hrs; type: ADME, organism-based
[29] = Protein binding in dog brain assessed as unbound fraction; type: ADME, tissue-based, Canis lupus familiaris
[30] = Cmax in mouse at 30 mg/kg, po; type: ADME, organism-based; settings: in vivo
A-375 [31] = experiment: Antitumor activity against human A-375 cells harboring BRAF V600E mutant xenografted in Nu/nu NCR mouse assessed as tumor regression at 10 to 30 mg/kg, po BID for 60 days; type: functional; settings: dose 10-30 mg/kg, time 60 day
[32] = Dissociation constant, pKa of the compound; type: physicochemical
[33] = Plasma protein binding in mouse assessed as unbound fraction; type: ADME, cell-free
[34] = Plasma protein binding in rat assessed as unbound fraction; type: ADME, cell-free
[35] = Solubility in stimulated gastric fluid at pH 1.2; type: ADME; settings: simulated gastric fluid
A-375 [36] = experiment: Antitumor activity against human A-375 cells harboring BRAF V600E mutant xenografted in Nu/nu NCR mouse assessed as tumor regression at 5 mg/kg, po BID for 21 days; type: functional, organism-based; settings: time 21.0 day
[37] = Plasma protein binding in cynomolgus monkey assessed as unbound fraction; type: ADME, cell-free, Macaca fascicularis
[38] = Unbound drug concentration in mouse brain at 10 mg/kg, po after 4 hrs; type: ADME, organism-based; settings: in vivo
[39] = Clearance in mouse at 3 mg/kg, iv; type: ADME, organism-based; settings: in vivo
[40] = Unbound drug concentration in mouse plasma at 5 mg/kg, po after 2 hrs; type: ADME, organism-based; settings: in vivo
[41] = Solubility in stimulated intestinal fluid at pH 6.5; type: ADME; settings: simulated intestinal fluid
[42] = Drug concentration in mouse plasma at 5 mg/kg, po after 2 hrs; type: ADME, organism-based
[43] = Toxicity in Nu/nu NCR mouse intracerebrally xenografted with human A-375 cells harboring BRAF V600E mutant assessed as body weight loss at 5 to 10 mg/kg, po measured after 60 days; type: organism-based; settings: in vivo, 1440 h, dose 5-10 mg/kg, time 60 day
[44] = target: Voltage-gated inwardly rectifying potassium channel KCNH2 (Homo sapiens, UniProt Q12809); experiment: Inhibition of hERG; type: toxicity
[45] = Apparent permeability across apical to basolateral side in LLC-PK1 cells; type: ADME, cell-based, Sus scrofa; settings: pig
[46] = Solubility in buffer at pH 7.4; type: physicochemical
[47] = Drug concentration in mouse plasma at 10 mg/kg, po after 4 hrs; type: ADME, organism-based
[48] = Drug concentration in mouse brain at 30 mg/kg, po after 4 hrs; type: ADME, organism-based; settings: read-out: Ct
[49] = Tmax in mouse at 5 mg/kg, po; type: ADME, organism-based; settings: in vivo
[50] = Cmax in mouse at 5 mg/kg, po; type: ADME, organism-based; settings: in vivo
[51] = Protein binding in rat brain assessed as unbound fraction; type: ADME, tissue-based
[52] = Toxicity in Nu/nu NCR mouse intracerebrally xenografted with human A-375 cells harboring BRAF V600E mutant assessed as animal death at 5 to 10 mg/kg, po measured after 60 days; type: organism-based; settings: in vivo, 1440 h, dose 5-10 mg/kg, time 60 day
A-375 [53] = experiment: Antitumor activity against human A-375 cells harboring BRAF V600E mutant xenografted in Nu/nu NCR mouse assessed as tumor regression at 10 mg/kg, po BID measured after 2 weeks; type: functional, organism-based
[54] = Unbound drug concentration in mouse plasma at 30 mg/kg, po after 4 hrs; type: ADME, organism-based; settings: in vivo
[55] = Drug concentration in mouse brain at 5 mg/kg, po after 4 hrs; type: ADME, organism-based; settings: read-out: Ct
[56] = Cmax in mouse at 10 mg/kg, po; type: ADME, organism-based; settings: in vivo
[57] = Unbound drug concentration in mouse brain at 10 mg/kg, po after 2 hrs; type: ADME, organism-based; settings: in vivo
[58] = AUCinfinity in mouse at 5 mg/kg, po; type: ADME, organism-based; settings: in vivo
[59] = Tmax in mouse at 10 mg/kg, po; type: ADME, organism-based; settings: in vivo
[60] = Drug concentration in mouse brain at 10 mg/kg, po after 2 hrs; type: ADME, organism-based; settings: read-out: Ct
[61] = Toxicity in Nu/nu NCR mouse subcutaneously xenografted with human A-375 cells harboring BRAF V600E mutant assessed as body weight loss at 5 to 10 mg/kg, po measured after 21 days; type: organism-based; settings: in vivo, 504 h, dose 5-10 mg/kg, time 21 day
[62] = Oral bioavailability in mouse at 30 mg/kg; type: ADME, organism-based; settings: in vivo
A-375 [63] = experiment: Antitumor activity against human A-375 cells harboring BRAF V600E mutant xenografted in Nu/nu NCR mouse assessed as IC90 coverage time at 30 mg/kg, po BID for 60 days; type: functional; settings: time 60 day
[64] = Plasma protein binding in human assessed as unbound fraction; type: ADME, cell-free
[65] = Drug concentration in mouse plasma at 5 mg/kg, po after 4 hrs; type: ADME, organism-based
[66] = Chemical stability in MeOH/NaHCO3/cysteine assessed as drug metabolism assessed as SN2 substitution after 50 degreeC overnight incubation; type: physicochemical; settings: read-out: Drug metabolism
[67] = Drug concentration in mouse plasma at 30 mg/kg, po after 2 hrs; type: ADME, organism-based
[68] = Oral bioavailability in mouse at 10 mg/kg; type: ADME, organism-based; settings: in vivo

Chain of Voltage-gated inwardly rectifying potassium channel KCNH2 (Q12809 whole entry): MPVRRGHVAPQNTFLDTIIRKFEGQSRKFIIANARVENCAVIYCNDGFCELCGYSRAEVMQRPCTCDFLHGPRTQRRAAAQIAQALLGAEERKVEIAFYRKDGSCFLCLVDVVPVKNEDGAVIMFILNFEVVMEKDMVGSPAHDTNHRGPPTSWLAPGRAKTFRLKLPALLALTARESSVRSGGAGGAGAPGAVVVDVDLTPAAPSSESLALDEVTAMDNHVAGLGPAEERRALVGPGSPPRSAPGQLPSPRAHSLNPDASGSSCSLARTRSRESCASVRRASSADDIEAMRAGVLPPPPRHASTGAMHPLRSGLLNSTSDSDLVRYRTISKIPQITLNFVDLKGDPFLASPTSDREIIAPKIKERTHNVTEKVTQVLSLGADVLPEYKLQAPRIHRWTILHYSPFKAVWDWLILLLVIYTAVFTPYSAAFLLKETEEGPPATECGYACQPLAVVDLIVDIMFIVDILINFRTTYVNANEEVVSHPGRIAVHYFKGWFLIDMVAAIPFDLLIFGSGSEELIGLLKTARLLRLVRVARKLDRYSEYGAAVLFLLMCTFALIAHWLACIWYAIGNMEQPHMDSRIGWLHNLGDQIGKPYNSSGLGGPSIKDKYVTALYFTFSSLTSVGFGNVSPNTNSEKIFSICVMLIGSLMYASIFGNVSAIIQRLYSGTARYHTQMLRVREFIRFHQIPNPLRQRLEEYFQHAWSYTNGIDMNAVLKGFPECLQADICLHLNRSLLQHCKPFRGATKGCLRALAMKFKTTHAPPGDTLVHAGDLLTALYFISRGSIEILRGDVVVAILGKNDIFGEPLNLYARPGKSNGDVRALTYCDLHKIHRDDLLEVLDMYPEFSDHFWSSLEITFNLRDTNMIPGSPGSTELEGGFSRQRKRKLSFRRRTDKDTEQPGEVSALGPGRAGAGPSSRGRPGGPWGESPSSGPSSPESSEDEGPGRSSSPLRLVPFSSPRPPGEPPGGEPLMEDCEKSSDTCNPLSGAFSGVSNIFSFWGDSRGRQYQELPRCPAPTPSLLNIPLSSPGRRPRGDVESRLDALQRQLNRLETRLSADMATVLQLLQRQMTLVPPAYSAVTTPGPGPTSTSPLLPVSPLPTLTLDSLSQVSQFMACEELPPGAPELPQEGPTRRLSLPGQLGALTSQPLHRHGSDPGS

Cc1c(Nc2c(F)ccc(NS(=O)(=O)CCCF)c2Cl)ccc2ncn(C)c(=O)c12 [TINLORAFENIB]
Drug uptake(free) [1]: 0.051 µg/g | Drug uptake(free) [2]: 0.21 µg/g | Activity (A-375 [3]): inactive | Time (A-375 [4]): ~16 h | Time (A-375 [5]): >16 h | bioavailability [6]: 126% | AUC(0-inf) [7]: 86000 ng·h/mL | degraded [8]: < 1% | concentration at 4 h [9]: 12000 ng/mL | Drug uptake(free) [10]: 0.18 µg/g | concentration at 2 h [11]: 2400 ng/g | Cp(f) [12]: 300 ng/mL | Time (A-375 [13]): ~8 h | concentration at 4 h [14]: 1600 ng/g | fraction unbound [15]: 0.087 | concentration at 2 h [16]: 590 ng/g | fraction unbound [17]: 0.017 | Vd [18]: 0.59 L/kg | Cp(f) [19]: 190 ng/mL | Activity (A-375 [20]): >99% | Cp(f) [21]: 220 ng/mL | Cp(f) [22]: 59 ng/mL | Drug uptake(free) [23]: 0.046 µg/g | fraction unbound [24]: 0.068 | Tmax [25]: 1 h | AUC(0-inf) [26]: 176000 ng·h/mL | half-life [27]: 1.9 h | concentration at 2 h [28]: 11000 ng/mL | fraction unbound [29]: 0.073 | Cmax [30]: 18000 ng/mL | Activity (A-375 [31]): >90% | pKa [32]: 7.41 | fraction unbound [33]: 0.019 | fraction unbound [34]: 0.003 | solubility [35]: 132 µg/mL (≈ 289 µM) | Activity (A-375 [36]): Active | fraction unbound [37]: 0.011 | Drug uptake(free) [38]: 0.14 µg/g | clearance [39]: 3.7 mL/min/kg | Cp(f) [40]: 79 ng/mL | solubility [41]: 7.6 µg/mL (≈ 16.6 µM) | concentration at 2 h [42]: 4200 ng/mL | Activity [43]: < 5% | IC50 [44]: 49.7 µM | Papp A→B [45]: 36 ×10⁻⁶ cm/s | solubility [46]: 9.1 µg/mL (≈ 19.9 µM) | concentration at 4 h [47]: 9900 ng/mL | concentration at 4 h [48]: 2100 ng/g | Tmax [49]: 1 h | Cmax [50]: 4700 ng/mL | fraction unbound [51]: 0.068 | Activity [52]: Non-Toxic | Activity (A-375 [53]): Active | Cp(f) [54]: 230 ng/mL | concentration at 4 h [55]: 530 ng/g | Cmax [56]: 14000 ng/mL | Drug uptake(free) [57]: 0.14 µg/g | AUC(0-inf) [58]: 28000 ng·h/mL | Tmax [59]: 1 h | concentration at 2 h [60]: 1600 ng/g | Activity [61]: < 5% | bioavailability [62]: 130% | Time (A-375 [63]): >24 h | fraction unbound [64]: 0.009 | concentration at 4 h [65]: 3100 ng/mL | degraded [66]: < 1% | concentration at 2 h [67]: 16000 ng/mL | F [68]: 192%
